Data reported in patent publication US8192962B2, “Processes for detecting toxic substances” (Daikin Industries, Ltd., priority 2001, dated 2012).

System: Unknown protein yeast genes
Test: DNA chip mRNA expression in yeast, unknown protein yeast genes (Table 1)
Type: cell-based, Saccharomyces cerevisiae S288C
Outline: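 Untreated cultures served as reference for log-phase S288C yeast given a growth-inhibiting, non-lethal toxicant dose for 2 h at 25° C. in YPD. Gene expression was measured on a whole-genome DNA chip from Cy3/Cy5-labeled cDNA.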

With [Cl][Hg][Cl] [(3), HgCl2] the “The level of expressed mRNA in the presence of chemical substance/The level of expressed mRNA in the absence of chemical substance” value (yeast gene YAL053W, incubated two hours with chemical substance) was 1.3, the “The level of expressed mRNA in the presence of chemical substance/The level of expressed mRNA in the absence of chemical substance” value (yeast gene YBL048W) was 2.3 and the “The level of expressed mRNA in the presence of chemical substance/The level of expressed mRNA in the absence of chemical substance” value (yeast gene YBL107C) was 0.4. The “The level of expressed mRNA in the presence of chemical substance/The level of expressed mRNA in the absence of chemical substance” value (yeast gene YDL072C, incubated two hours with chemical substance) was 3.5, the “The level of expressed mRNA in the presence of chemical substance/The level of expressed mRNA in the absence of chemical substance” value (yeast gene YDL204W, incubated two hours with chemical substance) was 4.8 and the “The level of expressed mRNA in the presence of chemical substance/The level of expressed mRNA in the absence of chemical substance” value (yeast gene YDL222C, incubated two hours with chemical substance) was 1.5. For the same compound, the “The level of expressed mRNA in the presence of chemical substance/The level of expressed mRNA in the absence of chemical substance” value (yeast gene YDR330W, incubated two hours with chemical substance) was 1.2, the “The level of expressed mRNA in the presence of chemical substance/The level of expressed mRNA in the absence of chemical substance” value (yeast gene YDR411C, incubated two hours with chemical substance) was 1.8 and the “The level of expressed mRNA in the presence of chemical substance/The level of expressed mRNA in the absence of chemical substance” value (yeast gene YDR511W, incubated two hours with chemical substance) was 0.9. For the same compound, the “The level of expressed mRNA in the presence of chemical substance/The level of expressed mRNA in the absence of chemical substance” value (yeast gene YDR545W, incubated two hours with chemical substance) was 0.6, the “The level of expressed mRNA in the presence of chemical substance/The level of expressed mRNA in the absence of chemical substance” value (yeast gene YEL001C, incubated two hours with chemical substance) was 1.4 and the “The level of expressed mRNA in the presence of chemical substance/The level of expressed mRNA in the absence of chemical substance” value (yeast gene YER004W, incubated two hours with chemical substance) was 1.9. The “The level of expressed mRNA in the presence of chemical substance/The level of expressed mRNA in the absence of chemical substance” value (yeast gene YER035W, incubated two hours with chemical substance) was 1.6, the “The level of expressed mRNA in the presence of chemical substance/The level of expressed mRNA in the absence of chemical substance” value (yeast gene YER079W, incubated two hours with chemical substance) was 1.9 and the “The level of expressed mRNA in the presence of chemical substance/The level of expressed mRNA in the absence of chemical substance” value (yeast gene YER106W, incubated two hours with chemical substance) was 1.3. The “The level of expressed mRNA in the presence of chemical substance/The level of expressed mRNA in the absence of chemical substance” value (yeast gene YER158C, incubated two hours with chemical substance) was 0.9, the “The level of expressed mRNA in the presence of chemical substance/The level of expressed mRNA in the absence of chemical substance” value (yeast gene YER163C, incubated two hours with chemical substance) was 1.2 and the “The level of expressed mRNA in the presence of chemical substance/The level of expressed mRNA in the absence of chemical substance” value (yeast gene YER175C, incubated two hours with chemical substance) was 1.3. For the same compound, the “The level of expressed mRNA in the presence of chemical substance/The level of expressed mRNA in the absence of chemical substance” value (yeast gene YFL006W, incubated two hours with chemical substance) was 1.6, the “The level of expressed mRNA in the presence of chemical substance/The level of expressed mRNA in the absence of chemical substance” value (yeast gene YFL010C, incubated two hours with chemical substance) was 1.3 and the “The level of expressed mRNA in the presence of chemical substance/The level of expressed mRNA in the absence of chemical substance” value (yeast gene YFL024C) was 1.1. For the same compound, the “The level of expressed mRNA in the presence of chemical substance/The level of expressed mRNA in the absence of chemical substance” value (yeast gene YFL032W, incubated two hours with chemical substance) was 1.6, the “The level of expressed mRNA in the presence of chemical substance/The level of expressed mRNA in the absence of chemical substance” value (yeast gene YGL037C, incubated two hours with chemical substance) was 6.5 and the “The level of expressed mRNA in the presence of chemical substance/The level of expressed mRNA in the absence of chemical substance” value (yeast gene YGL047W, incubated two hours with chemical substance) was 1.6. For the same compound, the “The level of expressed mRNA in the presence of chemical substance/The level of expressed mRNA in the absence of chemical substance” value (yeast gene YGL053W, incubated two hours with chemical substance) was 1.2, the “The level of expressed mRNA in the presence of chemical substance/The level of expressed mRNA in the absence of chemical substance” value (yeast gene YGL121C) was 1.4 and the “The level of expressed mRNA in the presence of chemical substance/The level of expressed mRNA in the absence of chemical substance” value (yeast gene YGL199C, incubated two hours with chemical substance) was 1.7. The “The level of expressed mRNA in the presence of chemical substance/The level of expressed mRNA in the absence of chemical substance” value (yeast gene YGR101W, incubated two hours with chemical substance) was 1.2, the “The level of expressed mRNA in the presence of chemical substance/The level of expressed mRNA in the absence of chemical substance” value (yeast gene YGR110W) was 2.2 and the “The level of expressed mRNA in the presence of chemical substance/The level of expressed mRNA in the absence of chemical substance” value (yeast gene YGR130C, incubated two hours with chemical substance) was 0.6. The “The level of expressed mRNA in the presence of chemical substance/The level of expressed mRNA in the absence of chemical substance” value (yeast gene YGR154C, incubated two hours with chemical substance) was 2.2, the “The level of expressed mRNA in the presence of chemical substance/The level of expressed mRNA in the absence of chemical substance” value (yeast gene YGR221C, incubated two hours with chemical substance) was 0.9 and the “The level of expressed mRNA in the presence of chemical substance/The level of expressed mRNA in the absence of chemical substance” value (yeast gene YHR138C, incubated two hours with chemical substance) was 2.2. The “The level of expressed mRNA in the presence of chemical substance/The level of expressed mRNA in the absence of chemical substance” value (yeast gene YHR199C, incubated two hours with chemical substance) was 3.2, the “The level of expressed mRNA in the presence of chemical substance/The level of expressed mRNA in the absence of chemical substance” value (yeast gene YIL023C, incubated two hours with chemical substance) was 2.1 and the “The level of expressed mRNA in the presence of chemical substance/The level of expressed mRNA in the absence of chemical substance” value (yeast gene YIL041W, incubated two hours with chemical substance) was 2.1. The “The level of expressed mRNA in the presence of chemical substance/The level of expressed mRNA in the absence of chemical substance” value (yeast gene YIL087C, incubated two hours with chemical substance) was 3.4, the “The level of expressed mRNA in the presence of chemical substance/The level of expressed mRNA in the absence of chemical substance” value (yeast gene YJL057C, incubated two hours with chemical substance) was 1.6 and the “The level of expressed mRNA in the presence of chemical substance/The level of expressed mRNA in the absence of chemical substance” value (yeast gene YJL066C, incubated two hours with chemical substance) was 1.2. The “The level of expressed mRNA in the presence of chemical substance/The level of expressed mRNA in the absence of chemical substance” value (yeast gene YJL082W, incubated two hours with chemical substance) was 2.4, the “The level of expressed mRNA in the presence of chemical substance/The level of expressed mRNA in the absence of chemical substance” value (yeast gene YJL151C, incubated two hours with chemical substance) was 3.2 and the “The level of expressed mRNA in the presence of chemical substance/The level of expressed mRNA in the absence of chemical substance” value (yeast gene YJL152W, incubated two hours with chemical substance) was 1.8. For the same compound, the “The level of expressed mRNA in the presence of chemical substance/The level of expressed mRNA in the absence of chemical substance” value (yeast gene YJL161W, incubated two hours with chemical substance) was 1.5, the “The level of expressed mRNA in the presence of chemical substance/The level of expressed mRNA in the absence of chemical substance” value (yeast gene YJL171C, incubated two hours with chemical substance) was 2.8 and the “The level of expressed mRNA in the presence of chemical substance/The level of expressed mRNA in the absence of chemical substance” value (yeast gene YJR008W, incubated two hours with chemical substance) was 1.2. The “The level of expressed mRNA in the presence of chemical substance/The level of expressed mRNA in the absence of chemical substance” value (yeast gene YJR054W, incubated two hours with chemical substance) was 0.3, the “The level of expressed mRNA in the presence of chemical substance/The level of expressed mRNA in the absence of chemical substance” value (yeast gene YKL071W) was 5.4 and the “The level of expressed mRNA in the presence of chemical substance/The level of expressed mRNA in the absence of chemical substance” value (yeast gene YKL086W, incubated two hours with chemical substance) was 2.4. For the same compound, the “The level of expressed mRNA in the presence of chemical substance/The level of expressed mRNA in the absence of chemical substance” value (yeast gene YKL151C, incubated two hours with chemical substance) was 1.7 and the “The level of expressed mRNA in the presence of chemical substance/The level of expressed mRNA in the absence of chemical substance” value (yeast gene YKL153W, incubated two hours with chemical substance) was 2.0.
